In experiment [1] the test system is G361 melanoma cells. Nature of the experiment: Analysis of cell cycle distribution using flow cytometry, G361. Conditions: 5 days; for apoptosis (sub G1 phase): 1 μM of each compound, alone or together. Type of experiment: cell-based, human. As to the method:
The G361/SK-MEL3 melanoma cells were seeded in […] tissue culture flasks. After 24 h, G361 cells were treated with: i) compound A (1 μM); ii) vemurafenib (1 μM); and iii) compound A (1 μM) and vemurafenib (1 μM) together for 5 days.
(§1) The control cells were left untreated for 5 days. Both detached and adherent cells were harvested at the end of 5 days. The cells were washed twice with approximately 5 mL of phosphate buffered saline (PBS) with centrifugation at 1000 rpm for 10 min. The cells were resuspended in 500 μL of PBS and fixed in 500 μL ice-cold 70% ethanol. The fixed cells were incubated at room temperature for 30 min, spun at 1000 rpm for 10 min. To the cell pellet, 1 mL of chilled 70% ethanol was added and stored below 0° C. till further analysis. The cells were washed twice with PBS to remove fixative and re-suspended in 250 μL PBS. To this 12.5 μL of propidium iodide (1 mg/ml in PBS) and 12.5 μL Rnase A (1 mg/mL) was added. After incubation at 37° C. for 30 min, the cells were analyzed using flow cytometry.
(§2) A flow cytometer (Becton Dickinson FACS Calibur, USA) was used for these studies in accordance with the manufacturer's recommendations. The argon ion laser set at 488 nm was used as an excitation source. Cells with DNA content between 2n and 4n were designated as being in G1, S and G2/M phases of the cell cycle, as defined by the level of red fluorescence. […] The number of cells in each cell cycle compartment was expressed as a percentage of the total number of cells present.
In general terms: A flow cytometer gives signals particle by particle.

Experiment [2] has as its system SK-MEL3 melanoma cells. Briefly: Analysis of cell cycle distribution using flow cytometry, SK-MEL3. Type of experiment: cell-based. Conditions: 5 days. As to the method:
In case of SK-MEL3 melanoma cells, the cells were treated with: i) compound A (1 μM); ii) vemurafenib (10 μM); and iii) compound A (1 μM) and vemurafenib (10 μM) together for 5 days.
as §1, §2

Experiment [3] deals with G361 melanoma cells. Nature of the experiment: Annexin V-FITC staining for detection of early apoptosis. Type of experiment: cell-based, human. Conditions: 1 μM of each compound, alone or together, 24 h. How it is done:
Annexin V-FITC is a sensitive probe for identifying apoptotic cells. During early apoptosis, the membrane phospholipid phosphatidyl serine (PS) is translocated from the inner to the outer leaflet of the plasma membrane, thereby exposing PS to the external cellular environment. Annexin V is a 35-36 kDa Calcium dependent phospholipid binding protein that has a high affinity for PS and binds to cells with exposed PS.
The melanoma cells G361 was seeded in […] tissue culture flasks. After 24 h, cells were treated with: i) compound A (1 μM); ii) vemurafenib (1 μM); and iii) compound A (1 μM) and vemurafenib (1 μM) together; for 24 h. The control cells were left untreated for 24 h. Medium containing floating cells were collected and pooled with the adherent cells after harvesting with trypsin at the different time points. The cells were washed twice with cold PBS with centrifugation at 1000 rpm for 10 minutes. The cell pellet was resuspended in 1× binding buffer (10 mm HEPES pH 7.4, 140 mM NaCl, 2.5 mM CaCl2) at a concentration of 1×10^6 cells/mL. 100 μL of the solution (1×10^5 cells) were stained with Annexin V-FITC and propidium iodide. The cells were incubated for 15 min at room temperature (25-30° C.) in the dark and the sample was analysed by flow cytometry.

The subject of experiment [4] is A375 (BRAFV600E mutated) cell line. Nature of the experiment: CCK8 live cell dehydrogenase cytotoxicity assay, A375 (96-well). Type of experiment: cell-based, human. Conditions: 48 h. As to the method: (§3) The cells were then treated with the respective test compounds.
(§4) At the end of the incubation periods, the plates were assayed using the CCK8 cytotoxicity assay protocol. The synergism was determined by the combination index (CI) calculated using the Compusyn software by Chou and Talalay (4). CI<1 is synergistic, CI=1 is additive and CI>1 is antagonistic.
(§5) Statistical analysis was performed using the Student t test, and a p value of <0.05 was considered significant. Data are expressed as the mean±standard error of the mean (SEM). The mean value was obtained from at least two independent experiments, each performed in triplicate.
(§6) Logarithmically growing cells were plated at a density of 3×10^3 cells/well and allowed to recover for 16-18 h. […] After 48 h, cell toxicity was determined by CCK-8 reagent (Dojindo Molecular Technologies, Inc, Maryland, and Japan). In accordance with the manufacturer's instructions, 5 μL/well CCK-8 reagent was added and plates were incubated for 2 h. The toxicity was determined by measuring the absorbance on Tecan Sapphire multi-fluorescence micro-plate reader at a wavelength of 450 nm corrected to 650 nm and normalized to controls. All the experiments were performed twice in triplicates.

For experiment [5], the system named is G361 (BRAFV600E mutated) cell line. Nature of the experiment: CCK8 live cell dehydrogenase cytotoxicity assay, G361 (96-well). Type of experiment: cell-based, human. Conditions: 48 h. As to the method: as §3, §4, §5, §6
The subject of experiment [6] is MDAMB-435S (BRAFV600E mutated) cell line. Nature of the experiment: CCK8 live cell dehydrogenase cytotoxicity assay, MDAMB-435S (96-well). Conditions: 48 h. Type of experiment: cell-based, human. As to the method:
as §3, §4, §5, §6

The test system of experiment [7] is A375 (BRAFV600E mutated) cell line. Briefly: CCK8 live cell dehydrogenase assay, A375 (384-well, Example 2). Conditions: A375 parental, single agent, 48 h. Type of experiment: cell-based, human.
Procedure: Logarithmically growing human BRAFV600E mutated melanoma cells were seeded at a density of 1500 cells/well in 30 μL of Dulbecco's Modified Eagle medium medium (DMEM) in 384-well plate (Corning, USA) using Tecan automated platform (FreedomEvo Liquid handling system) and incubated for about 12-16 h to allow the cells to adhere. […] The controls used were only cells or cells along with the vehicle (DMSO).
The plates were incubated for 48 h in humidified 5% CO2 incubator at 37°±1° C. Post incubation the plates were assayed using the CCK8 reagent (Dojindo Molecular Technologies, Inc, Maryland, and Japan). In accordance with the manufacturer's instructions, 3 μL CCK-8 reagent was added in each well of the 384 well plate and plates were incubated for 2 h. The toxicity was determined by measuring the absorbance on Tecan Sapphire multi-fluorescence micro-plate reader at a wavelength of 450 nm normalized to controls. All the experiments were performed in quadruplets.
Experiment [8] concerns A375R cell line (vemurafenib resistant). Briefly: CCK8 live cell dehydrogenase assay, A375R (384-well, Example 2). Type of experiment: cell-based, human. Conditions: single agent, 48 h. As to the method: The cytotoxicity studies using all the test compounds as single agents and in combinations were carried out using the CCK8 live cell dehydrogenase assay.
Logarithmically growing human BRAFV600E mutated melanoma cells were seeded at a density of 1500 cells/well in 30 μL of Dulbecco's Modified Eagle medium medium (DMEM) in 384-well plate (Corning, USA) using Tecan automated platform (FreedomEvo Liquid handling system) and incubated for about 12-16 h to allow the cells to adhere. The cells were then treated for 48 h with different doses of compound A and anticancer agents (vemurafenib or dabrafenib or trametinib) as monotherapy (used singly) and in combinations. Studies using different dosages were carried out for each combination (e.g. combination of compound A and vemurafenib). […]
The plates were incubated for 48 h in humidified 5% CO2 incubator at 37°±1° C. […] The toxicity was determined by measuring the absorbance on Tecan Sapphire multi-fluorescence micro-plate reader at a wavelength of 450 nm normalized to controls. […]
The potency of the combination was quantified using Calcusyn software (Biosoft, Ferguson, MO, USA) which is based on the Chou Talalay method that calculates a combination index (CI) with CI values less than 1 indicating synergy.

Where “and” joins values, the source holds several entries; their conditions need not be identical. Equal entries are not always repeated.

Regarding `CN1CC[C@@H](c2c(O)cc(O)c3c(=O)cc(-c4ccc(C(F)(F)F)cc4Cl)oc23)[C@@H]1CO.Cl` (relative stereo) [compound A, (+)-trans-2-(2-chloro-4-trifluoromethylphenyl)-5,7-dihydroxy-8-(2-hydroxy-methyl-1-methylpyrrolidin-3-yl)-chromen-4-one Hydrochloride], the “apoptosis (sub G1 phase)” value amounted to 9.48% in experiment [1] and 19.63% in experiment [2] (compound A 1 μM alone). Moreover, in experiment [3], the “cells in early apoptosis (annexin stained cells)” value came out at 8%. Further, the inhibition of cells is 46% in experiment [4] (A375, compound A 3 μM alone); 2% in experiment [5] (G361, compound A 0.3 μM alone); 32% in experiment [6] (MDA-MB435S, compound A 1 μM alone). Moreover, the IC50 (as a rule, the concentration at which inhibition is half-maximal) in experiment [6] (MDAMB435S, cytotoxicity, Hydrochloride, read-out: IC50 in μM (±SEM)) is 0.85 µM and 0.7 µM. Also, the “sensitivity of the cell line (dose response curve)” value in experiment [7] and in experiment [8] was “equally sensitive” throughout.

On to `CCCS(=O)(=O)Nc1ccc(F)c(C(=O)c2c[nH]c3ncc(-c4ccc(Cl)cc4)cc23)c1F` [vemurafenib, reference compound], for which the “apoptosis (sub G1 phase)” value in experiment [1] amounted to 2.3%; in experiment [2] (vemurafenib 10 μM alone), 15.12%. The G1 arrest in experiment [1] (vemurafenib 1 μM, control cells 72.36%) was 91.94%; in experiment [2] (vemurafenib 10 μM, control cells 67.38%), 76.78%. Also, in experiment [3], the “cells in early apoptosis (annexin stained cells)” value is reported as 20%. Also, the inhibition – broadly, the percentage by which the read-out fell short of the control – at 1 µM in experiment [4] (Homo sapiens, A-375, A375, vemurafenib 1 μM alone, read-out: inhibition of cells) stood at 23%; in experiment [5] (Homo sapiens, G-361, G361, vemurafenib 1 μM alone, read-out: inhibition of cells), 30%; in experiment [6] (Homo sapiens, MDA-MB-435S, MDA-MB435S, vemurafenib 1 μM alone, read-out: inhibition of cells), 31%.

The values are drawn from US12383530B2, “Pharmaceutical combination for the treatment of melanoma” (Piramal Enterprises Limited, priority 2013, dated 2025).
